Measurements as given in patent US20220289791A1, “LACTATE DEHYDROGENASE INHIBITOR POLYPEPTIDES FOR USE IN THE TREATMENT OF CANCER” (UNIVERSITÉ CATHOLIQUE DE LOUVAIN, priority 2019, published 2022).
*1 amine or outer side, *2 acyl side, *3 side chain or, on linkers, in order; H or OH if unused. Where a SMILES comes first, the peptide text is derived from it. Bridges are numbered along the chain shown (N, C = ends). mXylylene = c1cc(C[*:1])cc(C[*:2])c1

Assays:
LDHBtr [1] = target: T1, LDHBtr (Homo sapiens, UniProt P07195); test: Microscale thermophoresis (MST), Example 1; assay type: binding
Protocol: (§1) MST measurements were performed on a Nanotemper Monolith NT.115 instrument (Nanotemper Technologies®, GmbH) using Red-dye-NHS fluorescent labeling. Each LDH (WT or truncated) sample, purified to homogeneity, was labeled with the Monolith RED-NHS 2nd generation labeling dye according to the supplied protocol (Nanotemper Technologies®, GmbH). Measurements were performed in 50 mM Na-Phosphate pH 7.6 and 100 mM NaCl containing 0.05% Tween-20 in premium treated capillaries (Nanotemper Technologies®, GmbH). The final concentrations of either labeled protein in the assay were 100 nM. The ligands (NADH and peptides) were titrated in 1:1 dilutions following manufacturer's recommendations. All binding reactions were incubated 5′ at room temperature after loading into capillaries. Experiments were performed in triplicates using 40% LED power and medium MST power, LaserOn time was 20 sec, Laser Off time 3 sec. Linear octapeptides were evaluated for their thermophoretic pattern.

rabbit LDHA (LDH-M) = target: T2, rabbit LDHA (LDH-M) (Oryctolagus cuniculus, UniProt P13491); test: Intrinsic fluorescence assay: recovery of tryptophan fluorescence after acidic dissociation, Example 1; assay type: biochemical; conditions: pre-dissociation at pH 5.0, neutralization; LT018 50 μM, LB8 up to 100 μM
T2 construct: purchased Sigma-Aldrich
Protocol: Following described procedure; rabbit LDHA commercial solution in an ammonium sulfate suspension in (pH-7.0, 3.2 M) was first diluted to 1 mg/ml in a solution of NaCl 200 mM and then dialyzed at 4° C. 2×2 h against 200 mM NaCl. The stock solution of 1 mg/ml was then diluted to 30 μg/ml in NaCl 200 mM to give the assay solution.
Assay solution was mixed 1:1 with either an acetate-chloride buffer (20 mM Acetic acid/Acetate, 180 mM NaCl, pH 5.0) or phosphate buffer (250 mM phosphate pH 7.6). After storage at 4° C. for 30′, samples were removed and diluted 1:1,250 mM phosphate buffer (pH 7.6) to yield a 7.5 μg/ml final concentration of re-associating LDH-M.
Samples of the resulting solutions were then subjected to kinetic experiments of the recovery of intrinsic fluorescence (Exc=286 nm, Em=350 nm, 10′, rt). Full tryptophan fluorescence spectra were afterward recorded (Exc=286 nm, Em=320-400 nm, rt).
To confirm this hypothesis, experiments were therefore designed to follow the recovery of the LDH tetrameric form after a pre-dissociation initiated in slightly acidic conditions. Briefly, six tryptophan residues are found in the LDH structure, three of them being located at the dimer-dimer interface. As the tryptophan quantum yield decreases in polar environment, dimeric LDHs show very weak tryptophan fluorescence compared to tetrameric one. […] The recovery of fluorescence upon pH neutralization is therefore a direct measure of the tetramer re-association.

LDHBtr [2] = target: T1, LDHBtr; test: NMR WaterLOGSY binding screening
Protocol: All experiments were acquired on a Bruker Ascend Avance III 600 MHz equipped with a broadband cryoprobe (Bruker® GmBH, Germany)
(§2) NMR WaterLOGSY was performed on samples prepared in 10% D2O buffer containing 50 mM sodium phosphate buffer, pH 7.6 and 100 mM NaCl. The concentration of LDH subunits was 15-20 μM. Ligand binding was detected using a NMR WaterLOGSY ephogsygpno.2 advance-version sequence with a […]. Water signal suppression was achieved using excitation sculpting scheme and a 50 ms spinlock was used to suppress protein background signal. For each experiment, 512 scans were collected to yield a 16K points FID. NMR WaterLOGSY intensity was corrected by plotting the intensity difference of the ligand NMR WaterLOGSY spectra recorded in the presence and absence of protein.
For NMR WaterLOGSY screening experiments a correction factor was applied to account for slight concentration variation between samples. To do so, 8 scans 1H NMR spectra with 50 ms spinlock were recorded before NMR WaterLOGSY experiments. The intensity ratio of the aliphatic region (0.700 ppm to 0.955 ppm) with and without protein was used as a correction factor to compare the NMR WaterLOGSY intensity of the polypeptides of interest with and without LDH subunits. An arbitrary threshold of 0.1, corresponding to a 10% decrease in the NMR WaterLOGSY signal intensity between the spectra with and without protein, was set to discriminate between binders and non-binders.

rabbit LDH5 (rLDH5) = target: T3, rabbit LDH5 (rLDH5) (Oryctolagus cuniculus, UniProt P13491); test: Denaturation assay: rLDH5 fluorescence recovery after acidic exposure; assay type: biochemical; conditions: 200 nM rLDH5, 50 μM peptide, pH 5 then neutral pH
T3 construct: purchased Sigma-Aldrich
Protocol: Rabbit LDHA commercial solution (Sigma-Aldrich®) in an ammonium sulfate suspension (pH-7, 3.2 M) was first diluted to 1 mg/ml in a solution of NaCl 200 mM and then dialyzed at 4° C. 2×2 h against 200 mM NaCl. The stock solution of 1 mg/ml was then diluted to 30 μg/ml (800 nM) in NaCl 20 0 mM to give the assay solution. Assay solution was mixed 1:1 with acetate-chloride buffer (20 mM Acetic acid/Acetate, 180 mM NaCl, 1 mM DTT pH 5) and stored on ice for 30 minutes. Samples were then removed from ice and let warm up for 2 minutes. The acidic solution was then diluted 1:1 with a 250 mM phosphate buffer (pH 7.6) containing or not the inhibitory peptide to yield a 7.5 μg/ml (200 nM) final concentration of re-associating LDHA. Samples of the resulting solutions were then subjected to kinetic experiments of the recovery of intrinsic fluorescence (Exc=286 nm, Em=350 nm, 10′, rt).
An experiment was thus designed to follow the recovery of LDH tetramers after a dissociation step initiated by acidic conditions. […] Monitoring of the rLDH5 tetrameric state was performed by following its intrinsic tryptophan fluorescence: 6 tryptophan residues can be found in each rLDHA monomer, three of them being located at the dimer-dimer interface. As the tryptophan quantum yield decreases in a polar environment, dimeric LDHs show very weak tryptophan fluorescence compared to the tetrameric form. […] Such decay can be compared to the difference in tryptophan fluorescence between tetrameric LDH1 and dimeric LDHBtr.

full length LDH1 enzyme = full length LDH1 enzyme (Homo sapiens, UniProt P07195); test: Biochemical/biophysical evaluation of interaction with full length tetrameric LDHB; assay type: binding
Protocol: as §2
as §1, with “The ligands (NADH and peptides) were titrated in 1:1 dilutions following manufacturer's recommendations. All binding reactions were incubated 5′ at room temperature after loading into capillaries. Experiments were performed in triplicates using 40% LED power and medium MST power, LaserOn time was 20 sec, Laser Off time 3 sec.” left out

[3] = linear peptides at 800 μM, LDHBtr 15 μM

T1 sequence (P07195 21-334): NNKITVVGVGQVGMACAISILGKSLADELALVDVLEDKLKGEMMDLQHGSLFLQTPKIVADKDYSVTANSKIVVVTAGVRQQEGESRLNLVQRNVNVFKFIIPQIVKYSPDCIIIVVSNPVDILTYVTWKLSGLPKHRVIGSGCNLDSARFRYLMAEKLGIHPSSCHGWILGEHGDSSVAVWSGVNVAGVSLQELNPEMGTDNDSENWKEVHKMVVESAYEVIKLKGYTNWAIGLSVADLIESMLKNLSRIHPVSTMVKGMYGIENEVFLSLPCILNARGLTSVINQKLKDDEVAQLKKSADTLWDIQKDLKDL
Chain of full length LDH1 enzyme (P07195 whole entry): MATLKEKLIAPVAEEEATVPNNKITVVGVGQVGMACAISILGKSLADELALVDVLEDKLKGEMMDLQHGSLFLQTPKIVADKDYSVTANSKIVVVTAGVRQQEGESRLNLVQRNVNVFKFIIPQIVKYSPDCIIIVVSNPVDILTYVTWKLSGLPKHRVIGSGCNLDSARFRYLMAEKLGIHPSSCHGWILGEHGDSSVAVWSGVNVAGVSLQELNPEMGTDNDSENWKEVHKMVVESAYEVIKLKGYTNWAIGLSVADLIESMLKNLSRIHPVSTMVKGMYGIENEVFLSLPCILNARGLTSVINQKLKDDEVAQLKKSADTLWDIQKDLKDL

Molecule	Kd (LDHBtr [1]; linear peptides, read-out: Kd using MST experiment) [µM]	recovery of fluorescence intensity after denaturation (LDH re-association) (rabbit LDHA (LDH-M))	Binding using WaterLOGSY (800 μM) (LDHBtr [2]; [3])	LDH5 fluorescence recovery after acidification (rabbit LDH5 (rLDH5))	Interaction with full length LDH1 / competition with LDHB native arm (full length LDH1 enzyme)	NMR WaterLOGSY signal / saturation transfer (LDHBtr [2])	increase in potency compared to LB8 (LDHBtr [1]; Kd by MST) [fold]	Binding using WaterLOGSY (800 μM) (LDHBtr [2]; cyclic peptides at 800 μM)
CC[C@H](C)[C@H](NC(=O)[C@H](CC(C)C)NC(=O)[C@H](CCCCN)NC(=O)[C@H](CCC(=O)O)NC(=O)[C@H](CCCCN)NC(=O)[C@H](CC(C)C)NC(=O)[C@@H](NC(=O)[C@H](C)N)[C@@H](C)O)C(N)=O [LB8, ATLKEKLI] (H-ATLKEKLI-NH2; N-terminus assumed)	1400	no effects up to 100 μM	+ (binders)	no effect	–	–	–	–
CC[C@H](C)[C@H](NC(=O)[C@H](CC(C)C)NC(=O)[C@H](CCCCN)NC(=O)[C@H](CCC(=O)O)NC(=O)[C@H](CCCCN)NC(=O)[C@H](CC(C)C)NC(=O)[C@@H](NC(=O)[C@H](C)N)[C@@H](C)O)C(=O)N[C@@H](C)C(=O)N1CCC[C@H]1C(=O)N[C@H](C(=O)N[C@@H](C)C(=O)N[C@@H](CCC(=O)O)C(=O)N[C@@H](CCC(=O)O)C(=O)N[C@@H](CCC(=O)O)C(=O)N[C@@H](C)C(=O)N[C@H](C(=O)N[C@H](C(=O)N1CCC[C@H]1C(N)=O)C(C)C)[C@@H](C)O)C(C)C [LB19, ATLKEKLIAPVAEEEATVP] (H-ATLKEKLIAPVAEEEATVP-NH2; N-terminus assumed)	–	–	+ (binders)	–	no interaction	positive signal	–	–
CC[C@H](C)[C@H](NC(=O)[C@H](CC(C)C)NC(=O)[C@H](CCCCN)NC(=O)[C@@H]1CSCc2cccc(c2)CSC[C@H](N)C(=O)N[C@@H]([C@@H](C)O)C(=O)N[C@@H](CC(C)C)C(=O)N[C@@H](CCCCN)C(=O)N1)C(N)=O [LT018, CTLKCKLI] (H-CTLKCKLI-NH2; linker 1-5 via mXylylene; N-terminus assumed)	–	nicely interfered with the fluorescence recovery at 50 μM	–	–	not able to compete with LDHB native arm	intense saturation transfer	30	+ (binders)
Ac-LIAPVAE-NH2 [LBc, LB19 central fragment evaluated as a negative control, reference compound]	–	no effect	− (non-binders)	no effect	–	not to demonstrate any appreciable saturation transfer	–	–
